Experiments:
[1] = system: MDA-MB-231 human breast cancer cells; assay: Disruption of human breast cancer cell adhesion (phase contrast microscopy); assay type: cell-based; settings: 100 μl of 10 mg/ml peptide stock added to 1 ml DMEM containing 5% serum; for cell morphology and attachment to the substratum: after 24 hours, cells express cadherin-11 (OB-cadherin) but not N-cadherin or E-cadherin
Method: MDA-MB-231 human breast cancer cells (Lombardi Cancer Research Center, Washington, D.C.) were used in these experiments. They express cadherin-11 (also known as OB-cadherin) but not N-cadherin or E-cadherin. The cells were plated (˜50.000 cells) on glass coverslips and cultured for 24 hours in DMEM containing 5% serum. Peptides (N-Ac-IFVIDDKSG-NH2 (SEQ ID NO:85) and H-IFVIDDKSG-OH (SEQ ID NO:85)) were dissolved in sterile water (10 mg/ml), and 100 μl of each peptide stock solution was added to 1 ml of DMEM containing 5% serum. Control cells had 100 μl of water added to the medium. Cells were monitored by phase contrast microscopy. After 24 hours cells were fixed in formaldehyde. […] The amino acid sequence of this peptide is identical to that which is found in the first extracellular domain of OB-cadherin.

[2] = system: Human umbilical vein endothelial cells; assay: Disruption of endothelial cell adhesion (VE-cadherin immunolabeling); assay type: cell-based
Method: Human umbilical vein endothelial cells were cultured using standard procedures (see Ichikawa et al., Amer. J. Physiol. 273 (Gastrointest. Liver Physiol. 36): […], 1997). Cells were maintained in EGM (Clonetics, San Diego, Calif.) and used at P2 for all experiments. Endothelial identity was established by Dil-LDL and factor VIII staining.
The cells were cultured on glass coverslips. Monolayers were exposed to peptides at a concentration of 75 μg/mL for 60 minutes. The cells were then fixed with 95% ethanol for 30 minutes at 4° C., followed by acetone for one minute and left to air dry at room temperature. Primary antibody for VE-cadherin (Immunotech, MarseiIles, France; 1:250) was added for one hour at 37° C. Coverslips were then washed with 0.1% milk/PBS solution three times for five minutes each. Secondary antibody (1:250), goat anti-rabbit FITC (Zymed, San Francisco, Calif.) was incubated at 37° C. for one hour. Coverslips were again washed with 0.1% milk/PBS solution three times for five minutes each. Coverslips were mounted with anti-quenching solution (1 mg/mL phenylenediamine (Sigma, St. Louis, Mo.) in 50% glycerol, 50% PBS). All photographs were taken at 400× and 1000× with exposure times of 12 seconds.

Row | Substance | cell morphology and attachment to the substratum [1] | effect on cell adhesion ([1]; 24 hours) | activity relative to similar peptide without the N- and C-terminal functional groups ([2]; 75 μg/mL for 60 minutes, comparison with H-VFRVDAETGD-OH) | effect on endothelial cell adhesion ([2]; 75 μg/mL peptide for 60 minutes, monolayers on glass coverslips, VE-cadherin immunolabel, 400× and 1000×)
1 | H-IFVIDDKSG-OH | remained flattened and well-attached to the substratum |  |  | 
2 | N-Ac-IFVIDDKSG-NH2 | rounded up from each other and were not well-attached to the substratum | interferes with cell adhesion |  | 
3 | N-Ac-VFRVDAETGD-NH2 |  |  | substantially greater | disrupts endothelial cell adhesion

From US6569996B1, “Antibody that specifically binds to the cadherin-5 cell adhesion recognition sequence” (Adherex Technologies, Inc., priority 1998, dated 2003)
